# Laboratory results taken from patent US7910612B2, “4-oxy-N-[1,3,4]-thiadiazol-2-yl-benzene sulfonamides, pharmaceutical compositions and methods for their therapeutic use” (Sanofi-Aventis, priority 2005, dated 2011).
# pEC50: −log10 of the molar value.
# Target: T1, human PPARdelta (Homo sapiens, UniProt Q03181)
# T1 construct: amino acids S139-Y441; expressed in transfected cells; host or cells: HEK (human embryo kidney) cells, stably transfected, pcDNA3 vector
# T1 sequence (Q03181 139-441): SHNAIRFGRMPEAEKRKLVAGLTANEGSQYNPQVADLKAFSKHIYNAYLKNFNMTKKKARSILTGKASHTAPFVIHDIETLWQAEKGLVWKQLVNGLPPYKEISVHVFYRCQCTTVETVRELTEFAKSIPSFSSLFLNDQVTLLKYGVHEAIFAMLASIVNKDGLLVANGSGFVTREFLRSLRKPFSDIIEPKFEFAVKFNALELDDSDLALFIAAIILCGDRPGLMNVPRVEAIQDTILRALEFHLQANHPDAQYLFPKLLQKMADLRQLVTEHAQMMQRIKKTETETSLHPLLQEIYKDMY
# Assay: cellular PPARdelta assay (stably transfected HEK luciferase reporter cell line)
# Format: cell-based
# Method: The potency of substances which bind to human PPARdelta and activate it in an agonistic manner is analyzed using a stably transfected HEK cell line (HEK=human embryo kidney) which is referred to here as PPARdelta reporter cell line. In analogy to the assay described for PPARalpha, the PPARdelta reporter cell line also contains two genetic elements, a luciferase reporter element (pdeltaM-GAL4-Luc-Zeo) and a PPARdelta fusion protein (GR-GAL4-humanPPARdelta-LBD) which mediates expression of the luciferase reporter element depending on a PPARdelta ligand. The stably and constitutively expressed fusion protein GR-GAL4-humanPPARdelta-LBD binds in the cell nucleus of the PPARdelta reporter cell line via the GAL4 protein portion to the GAL4 DNA binding motifs 5′-upstream of the luciferase reporter element which is stably integrated in the genome of the cell line. There is only little expression of the luciferase reporter gene in the absence of a PPARdelta ligand if fatty acid-depleted fetal calf serum (cs-FCS) is used in the assay. PPARdelta ligands bind and activate the PPARdelta fusion protein and thereby stimulate expression of the luciferase reporter gene. The luciferase which is formed can be detected by means of chemiluminescence via an appropriate substrate.
# The production of the stable PPARdelta reporter cell line is based on a stable HEK-cell clone which was stably transfected with a luciferase reporter element. This step was already described above in the section “construction of the PPARalpha reporter cell line”. In a second step, the PPARdelta fusion protein (GR-GAL4-humanPPARdelta-LBD was stably introduced into this cell clone. For this purpose, the cDNA coding for the N-terminal 76 amino acids of the glucocorticoid receptor (Accession #P04150) was linked to the cDNA section coding for amino acids 1-147 of the yeast transcription factor GAL4 (Accession #P04386). The cDNA of the ligand-binding domain of the human PPARdelta receptor (amino acids S139-Y441; Accession #L07592) was cloned in at the 3′-end of this GR-GAL4 construct. The fusion construct prepared in this way (GR-GAL4-humanPPARdelta-LBD) was recloned into the plasmid pcDNA3 (Invitrogen) in order to enable constitutive expression by the cytomegalovirus promoter. This plasmid was linearized with a restriction endonuclease and stably transfected into the previously described cell clone containing the luciferase reporter element. The resulting PPARdelta reporter cell line which contains a luciferase reporter element and constitutively expresses the PPARdelta fusion protein (GR-GAL4-human PPARdelta-LBD) was isolated by selection with zeocin (0.5 mg/ml) and G418 (0.5 mg/ml).
# The activity of PPARdelta agonists is determined in a 3-day assay in exact analogy to the procedure already described for the PPARalpha reporter cell line except that the PPARdelta reporter cell line and a specific PPARdelta agonist was used as a standard to control test efficacy. […] Compounds of the invention of the formula I activate the PPARdelta receptor.
row,Compound,pEC50
1,"Cc1nc(-c2ccc(C(F)(F)F)cc2)sc1COc1ccc(S(=O)(=O)Nc2nnc(C(C)C)s2)cc1 [Example 1, N-(5-Isopropyl-[1,3,4]thiadiazol-2-yl)-4-[4-methyl-2-(4-trifluoromethyl-phenyl)-thiazol-5-ylmethoxy]-benzenesulfonamide]",6.43
2,"COc1ccc(-c2nc(COc3ccc(S(=O)(=O)Nc4nnc(C(C)C)s4)cc3)co2)cc1 [Example 13, N-(5-Isopropyl-[1,3,4]thiadiazol-2-yl)-4-[2-(4-methoxy-phenyl)-oxazol-4-ylmethoxy]-benzenesulfonamide]",6.19
3,"CCc1oc(-c2cccc(C(F)(F)F)c2)nc1COc1ccc(S(=O)(=O)Nc2nnc(C(C)C)s2)cc1 [Example 14, 4-[5-Ethyl-2-(3-trifluoromethyl-phenyl)-oxazol-4-ylmethoxy]-N-(5-isopropyl-[1,3,4]thiadiazol-2-yl)-benzenesulfonamide]",6.17

# Further compounds by rising pEC50, results first:
row,pEC50,Compound
1,5.95,"CC(C)c1nnc(NS(=O)(=O)c2ccc(OCc3ccc(Oc4ccc(C(F)(F)F)cc4)cc3)cc2)s1 [Example 4, N-(5-Isopropyl-[1,3,4]thiadiazol-2-yl)-4-[4-(4-trifluoromethyl-phenoxy)-benzyloxy]-benzenesulfonamide]"
2,6.32,"COc1ccc2c(COc3ccc(S(=O)(=O)Nc4nnc(C(C)C)s4)cc3)coc2c1 [Example 3, N-(5-Isopropyl-[1,3,4]thiadiazol-2-yl)-4-(6-methoxy-benzofuran-3-ylmethoxy)-benzenesulfonamide]"
3,6.59,"COc1ccc(-c2nc(COc3ccc(S(=O)(=O)Nc4nnc(C(C)C)s4)cc3)no2)cc1 [Example 9, N-(5-Isopropyl-[1,3,4]thiadiazol-2-yl)-4-[5-(4-methoxy-phenyl)-[1,2,4]oxadiazol-3-ylmethoxy]-benzenesulfonamide]"
